Laboratory results taken from the supplement of paper PMC10883282.
± gives the standard deviation of the averaged measurements.

Experiments:
Experiment in all cases: relative viability vs DMSO control (72 h) (fraction); higher = more viable cells
[1] = system: HS729
Outline: (§1)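 Relative viability was measured with ATPLite and expressed as percent growth, averaged across up to triplicate wells. Sarcoma cell lines had been seeded in 384-well plates to reach 80–90% confluence, dosed after 24 h, and incubated 72 h at 37 °C, 5% CO2. All data were rescaled on a scale where 1 is full and 0 is none.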

[2] = system: SK-LMS-1
Outline: as §1

[3] = system: MES-SA
Outline: as §1

[4] = system: G401
Outline: as §1

[5] = system: SW872
Outline: as §1

[6] = system: A204
Outline: as §1

[7] = system: SYO-1
Outline: as §1

[8] = system: KHOS-NP
Outline: as §1

[9] = system: SW684
Outline: as §1

[10] = system: VA-ES-BJ
Outline: as §1

[11] = system: SW1353
Outline: as §1

[12] = system: HT1080
Outline: as §1

Cc1ccc(NC(=O)c2ccc(CN3CCN(C)CC3)cc2)cc1Nc1nccc(-c2cccnc2)n1 [Imatinib]
Conditions	relative viability
[1], 0.00017 µM	0.972 ± 0.055
[1], 0.00051 µM	0.996 ± 0.037
[1], 0.00152 µM	1.02 ± 0.041
[1], 0.00457 µM	0.991 ± 0.022
[1], 0.01372 µM	0.977 ± 0.034
[1], 0.04115 µM	0.985 ± 0.053
[1], 0.1235 µM	0.993 ± 0.04
[1], 0.3704 µM	0.945 ± 0.033
[1], 1.111 µM	0.917 ± 0.038
[1], 3.333 µM	0.86 ± 0.026
[1], 10 µM	0.522 ± 0.034
[2], 0.00017 µM	1.02 ± 0.023
[2], 0.00051 µM	1.02 ± 0.02
[2], 0.00152 µM	1.04 ± 0.014
[2], 0.00457 µM	1.02 ± 0.08
[2], 0.01372 µM	1.06 ± 0.018
[2], 0.04115 µM	1.07 ± 0.014
[2], 0.1235 µM	1.05 ± 0.052
[2], 0.3704 µM	1.08 ± 0.024
[2], 1.111 µM	1.08 ± 0.021
[2], 3.333 µM	1.11 ± 0.058
[2], 10 µM	0.635 ± 0.039
[3], 0.00017 µM	0.966 ± 0.036
[3], 0.00051 µM	0.988 ± 0.015
[3], 0.00152 µM	0.992 ± 0.03
[3], 0.00457 µM	0.9838 ± 0.008
[3], 0.01372 µM	0.985 ± 0.021
[3], 0.04115 µM	0.9942 ± 0.0068
[3], 0.1235 µM	0.997 ± 0.01
[3], 0.3704 µM	1.02 ± 0.012
[3], 1.111 µM	1.01 ± 0.03
[3], 3.333 µM	0.905 ± 0.036
[3], 10 µM	0.658 ± 0.033
[4], 0.00017 µM	0.963 ± 0.028
[4], 0.00051 µM	0.988 ± 0.018
[4], 0.00152 µM	0.958 ± 0.041
[4], 0.00457 µM	0.938 ± 0.038
[4], 0.01372 µM	0.956 ± 0.034
[4], 0.04115 µM	0.945 ± 0.076
[4], 0.1235 µM	0.951 ± 0.022
[4], 0.3704 µM	0.946 ± 0.028
[4], 1.111 µM	0.925 ± 0.035
[4], 3.333 µM	0.823 ± 0.04
[4], 10 µM	0.518 ± 0.021
[5], 0.00017 µM	0.973 ± 0.031
[5], 0.00051 µM	0.963 ± 0.055
[5], 0.00152 µM	0.954 ± 0.055
[5], 0.00457 µM	0.971 ± 0.031
[5], 0.01372 µM	0.992 ± 0.021
[5], 0.04115 µM	0.968 ± 0.061
[5], 0.1235 µM	0.969 ± 0.038
[5], 0.3704 µM	0.976 ± 0.031
[5], 1.111 µM	0.982 ± 0.02
[5], 3.333 µM	0.916 ± 0.033
[5], 10 µM	0.627 ± 0.013
[6], 0.00017 µM	1.01 ± 0.062
[6], 0.00051 µM	1.01 ± 0.035
[6], 0.00152 µM	0.993 ± 0.065
[6], 0.00457 µM	0.99 ± 0.046
[6], 0.01372 µM	0.95 ± 0.061
[6], 0.04115 µM	0.87 ± 0.053
[6], 0.1235 µM	0.738 ± 0.099
[6], 0.3704 µM	0.491 ± 0.043
[6], 1.111 µM	0.389 ± 0.054
[6], 3.333 µM	0.312 ± 0.034
[6], 10 µM	0.196 ± 0.014
[7], 0.00017 µM	0.98 ± 0.022
[7], 0.00051 µM	0.974 ± 0.012
[7], 0.00152 µM	0.965 ± 0.013
[7], 0.00457 µM	0.964 ± 0.027
[7], 0.01372 µM	0.948 ± 0.035
[7], 0.04115 µM	0.907 ± 0.053
[7], 0.1235 µM	0.804 ± 0.011
[7], 0.3704 µM	0.744 ± 0.017
[7], 1.111 µM	0.704 ± 0.042
[7], 3.333 µM	0.63 ± 0.029
[7], 10 µM	0.155 ± 0.027
[8], 0.00017 µM	1.01 ± 0.0079
[8], 0.00051 µM	1.001 ± 0.0079
[8], 0.00152 µM	1.01 ± 0.019
[8], 0.00457 µM	1 ± 0.015
[8], 0.01372 µM	1.02 ± 0.011
[8], 0.04115 µM	0.997 ± 0.02
[8], 0.1235 µM	1.03 ± 0.02
[8], 0.3704 µM	1.01 ± 0.023
[8], 1.111 µM	1.01 ± 0.025
[8], 3.333 µM	0.8795 ± 0.0052
[8], 10 µM	0.609 ± 0.028
[9], 0.00017 µM	0.968 ± 0.072
[9], 0.00051 µM	0.9679 ± 0.0012
[9], 0.00152 µM	0.985 ± 0.051
[9], 0.00457 µM	1.02 ± 0.045
[9], 0.01372 µM	0.948 ± 0.053
[9], 0.04115 µM	0.9868 ± 0.0079
[9], 0.1235 µM	1.01 ± 0.042
[9], 0.3704 µM	1.02 ± 0.036
[9], 1.111 µM	1.03 ± 0.091
[9], 3.333 µM	0.973 ± 0.041
[9], 10 µM	0.59 ± 0.042
[10], 0.00017 µM	1.02 ± 0.034
[10], 0.00051 µM	1.029 ± 0.0078
[10], 0.00152 µM	1.04 ± 0.014
[10], 0.00457 µM	1.024 ± 0.01
[10], 0.01372 µM	1.01 ± 0.011
[10], 0.04115 µM	1.01 ± 0.035
[10], 0.1235 µM	1.01 ± 0.017
[10], 0.3704 µM	1.02 ± 0.032
[10], 1.111 µM	1.02 ± 0.028
[10], 3.333 µM	0.9831 ± 0.0072
[10], 10 µM	0.807 ± 0.015
[11], 0.00017 µM	1.01 ± 0.033
[11], 0.00051 µM	0.988 ± 0.01
[11], 0.00152 µM	0.986 ± 0.027
[11], 0.00457 µM	1.04 ± 0.06
[11], 0.01372 µM	1.01 ± 0.016
[11], 0.04115 µM	1.02 ± 0.038
[11], 0.1235 µM	0.991 ± 0.033
[11], 0.3704 µM	1 ± 0.027
[11], 1.111 µM	1.06 ± 0.02
[11], 3.333 µM	1.1 ± 0.053
[11], 10 µM	0.762 ± 0.12
[12], 0.00017 µM	1.06 ± 0.055
[12], 0.00051 µM	1 ± 0.031
[12], 0.00152 µM	0.989 ± 0.029
[12], 0.00457 µM	1.02 ± 0.032
[12], 0.01372 µM	1.03 ± 0.044
[12], 0.04115 µM	0.987 ± 0.019
[12], 0.1235 µM	1.01 ± 0.033
[12], 0.3704 µM	0.968 ± 0.054
[12], 1.111 µM	0.973 ± 0.037
[12], 3.333 µM	0.942 ± 0.068
[12], 10 µM	0.643 ± 0.04
